Test results: US10913781B2, “Pepducin design and use” (Tufts Medical Center, Inc., priority 2011, dated 2021)
Peptide text beside a SMILES is read from it. * marks the point of attachment. Palmitoyl = CCCCCCCCCCCCCCCC(=O)*

Experiments:
[1] = system: CXCR1/CXCR2; assay: Human neutrophil chemotaxis to IL-8; type: cell-based; conditions: 100 nM IL-8
Description: (A) Human neutrophils (n=4 normal volunteers) were analyzed for surface expression of human PAR1, PAR2, and PAR4 by flow cytometry with PAR-specific antibodies. […] Chemotaxis index is the ratio of directed versus random migration over 30 min through a 5-μm pore filter.
P2pal-18S had no effect on PAR1-dependent platelet aggregation (FIG. 5A). Neither P2pal-18S nor P2pal-14GQ caused membrane disruption or apoptosis as assessed by propidium iodide uptake in SW620 cells with up to 30 μM concentrations of pepducin (FIG. 5B).

[2] = target: PAR2 (Homo sapiens, UniProt P55085); assay: Trypsin cleavage of PAR2; type: cell-based
Description: Additionally, we tested whether P2pal-18S inhibited proteolytic cleavage of PAR2 or endocytosis (DeFea K A, et al. (2000) J Cell Biol 148: 1267-81; Roosterman D, et al. (2003) Am J Physiol Cell Physiol 284: C1319-29; Stalheim L, et al. (2005) Mol Pharmacol 67: 78-87). […] Therefore, the P2pal-18S i3 loop pepducin can inhibit PAR2-dependent calcium signaling, PLC-b inositol phosphate formation, and cell migration, but not proteolytic cleavage or endocytosis.

[3] = target: T1, PAR2 (Mus musculus, UniProt P55086); assay: λ-carrageenan/kaolin-induced mouse paw edema and inflammation (PAR2 pepducin); type: in vivo; set-up: from tissue; host or cells: living C57BL/6 mice, hindpaw; conditions: 10 mg/kg s.c.
[4] = target: T1, PAR2; assay: Mast cell conditioned media-induced mouse paw edema; type: in vivo; set-up: from tissue; host or cells: living C57BL/6 mice, hindpaw; conditions: 10 mg/kg
Description: (A) Mast cells were treated with 2 mg/mL of mast cell degranulating agent 48/80 or 2% 1-carrageenan/4% kaolin. […] (B) P2pal-18S inhibits human neutrophil chemotaxis (n=6) to mast cell media. Human neutrophils were incubated with […] P2pal-18S, or […] mast cell tryptase inhibitor APC-366 and allowed to migrate 30 min toward CM from mast cells. (C) C57BL/6 mice (n=5) were pretreated with the tryptase inhibitor APC-366 (5 mg/kg, s.c.) or vehicle (20% DMSO) and then challenged with intraplantar injection of 1-carrageenan/kaolin. (D) Mast cell conditioned media (30 μL of 1-carrageenan/kaolin stimulated media) was injected into the hindpaws of C57BL/6 mice treated with 10 mg/kg P2pal-18S or vehicle (n=5). Data represent mean±SEM. #, P=0.07, *, P<0.05 and **, P<0.005. (E) Mast cell-deficient mice have a significant reduction in 1-carrageenan/kaolin induced paw edema (8 h time point, n=4-6) as compared to littermate controls. Mast-cell deficient mice or littermate controls with intact mast cells were treated with P2pal-18S (10 mg/kg, s.c.) or vehicle and hind paws challenged with 1-carrageenan/kaolin irritant. Error bars represent mean±SEM.
To examine whether mast cells and mast cell tryptase were activating PAR2 in the paw edema model in vivo, mice were depleted of mast cells through pretreatment with compound 48/80 (Carvalho M et al. Eur J Pharmacol (2005), 525: 161-169). […]

[5] = target: T2, PAR1 (Homo sapiens, UniProt P25116); assay: Human platelet Ca2+ flux stimulated with SFLLRN; type: cell-based; set-up: endogenous in cells; host or cells: A549, HOP62, H1299, H522, H226, HOP92 lung carcinoma lines; conditions: human platelets
T2 sequence (P25116 22-425): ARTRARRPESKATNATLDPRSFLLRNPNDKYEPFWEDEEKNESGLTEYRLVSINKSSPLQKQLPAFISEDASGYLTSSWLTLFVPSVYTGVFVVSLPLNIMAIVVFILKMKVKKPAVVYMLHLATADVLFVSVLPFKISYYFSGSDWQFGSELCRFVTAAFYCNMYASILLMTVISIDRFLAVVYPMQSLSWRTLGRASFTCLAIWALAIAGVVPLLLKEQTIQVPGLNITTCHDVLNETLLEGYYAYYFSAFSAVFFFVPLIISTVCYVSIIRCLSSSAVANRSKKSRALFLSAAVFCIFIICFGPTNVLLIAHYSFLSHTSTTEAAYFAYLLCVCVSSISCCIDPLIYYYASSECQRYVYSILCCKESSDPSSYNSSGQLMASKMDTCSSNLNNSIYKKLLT
Description: FIG. 8 illustrates data that show membrane-tethered PAR1-i3 and i1 pepducins block Ca^2+ flux and migration. (A): Model of PAR1 based on the […] structure of rhodopsin from Swift et al., 2006. Protease cleaved receptor results in generation of a new tethered ligand. The topologic arrangement of the […] to i4 loops and G proteins are illustrated. Schematic diagram of palmitoylated PAR1 i3 and i1 pepducins and their amino acid sequence composition are shown. (B): Effect of PAR1 pepducins on human platelets Ca^2+ flux. Platelets were preincubated with indicated concentrations of pepducins and stimulated with SFLLRN. Effect of blockade is expressed as the percentage of full Ca^2+ signal generated with SFLLRN in the absence of inhibitors. (C): Migration of A549 cells toward 0.3 nmol/L thrombin or 10 μmol/L […] in the presence or absence of 3 μmol/L P1pal-7, P1pal-10S, or P1pal-i1-11 after 18 hours. […] Cell migration is expressed as fold migration of ligand-mediated migration divided by basal migration.
First, it had been previously shown that PAR1 strongly couples to Gq in human platelets as assessed by Ca^++ signaling. In order to determine effect of i1 and i3 pepducins on PAR1 mediated Gq-PLCβ-lnsP3 signaling, human platelets were pretreated with PAR1 pepducins and stimulated with SFLLRN, before the rate of Ca^++ flux was measured.

T1 sequence (P55086 26-399): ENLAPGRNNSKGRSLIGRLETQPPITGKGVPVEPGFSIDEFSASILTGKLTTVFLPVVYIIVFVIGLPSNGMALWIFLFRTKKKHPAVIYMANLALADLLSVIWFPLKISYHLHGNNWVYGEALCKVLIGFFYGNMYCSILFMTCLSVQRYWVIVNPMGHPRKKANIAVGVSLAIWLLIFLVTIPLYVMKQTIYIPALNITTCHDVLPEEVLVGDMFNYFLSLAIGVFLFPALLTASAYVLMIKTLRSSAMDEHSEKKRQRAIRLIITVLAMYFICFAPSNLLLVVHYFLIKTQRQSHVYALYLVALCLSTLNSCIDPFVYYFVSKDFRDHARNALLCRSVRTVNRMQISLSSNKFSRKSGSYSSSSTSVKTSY
PAR2 (Homo sapiens, UniProt P55085), sequence (P55085 26-397): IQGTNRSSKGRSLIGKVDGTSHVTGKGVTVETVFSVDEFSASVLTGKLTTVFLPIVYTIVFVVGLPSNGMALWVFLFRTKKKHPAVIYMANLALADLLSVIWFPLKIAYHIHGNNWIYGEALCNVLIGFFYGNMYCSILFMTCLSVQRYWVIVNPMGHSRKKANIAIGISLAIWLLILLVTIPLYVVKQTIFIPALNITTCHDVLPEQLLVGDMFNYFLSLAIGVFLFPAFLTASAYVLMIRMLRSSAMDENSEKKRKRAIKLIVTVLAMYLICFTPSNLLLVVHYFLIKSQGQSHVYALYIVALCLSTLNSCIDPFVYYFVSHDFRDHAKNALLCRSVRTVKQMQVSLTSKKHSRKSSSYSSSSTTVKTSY

Effect on trypsin cleavage of PAR2 [2]	Effect on increase in myeloperoxidase activity in hindpaw tissue ([3]; 7 h after λ-carrageenan/kaolin, WT mice)	Protection against leukocytic infiltrates in the dermis of the footpads ([3]; 7 h post λ-carrageenan/kaolin) [%]	Effect on swelling in PAR2-deficient mice ([3]; PAR2-deficient mice)	Decrease in λ-carrageenan/kaolin-induced edema ([3]; WT C57BL/6 mice) [%]	Effect on paw edema in mast cell-deficient mice ([3]; mast cell-deficient mice, λ-carrageenan/kaolin)	Decrease in peak development of edema ([4]; at 4 h, mast cell media intraplantar) [%]	Protection against edema at later times ([4]; at 8 h and thereafter)	SMILES	Antagonist activity, neutrophil chemotaxis, CXCR1/2 IL-8 receptors [1]	Extent of inhibition of calcium mobilization [5]
no effect	blocked	60	did not further reduce swelling	50	could not be further reduced	50	complete protection	CCCCCCCCCCCCCCCC(=O)N[C@@H](CCCNC(=N)N)C(=O)N[C@@H](CO)C(=O)N[C@@H](CO)C(=O)N[C@@H](C)C(=O)N[C@@H](CCSC)C(=O)N[C@@H](CC(=O)O)C(=O)N[C@@H](CCC(=O)O)C(=O)N[C@@H](CC(N)=O)C(=O)N[C@@H](CO)C(=O)N[C@@H](CCC(=O)O)C(=O)N[C@@H](CCCCN)C(=O)N[C@@H](CCCCN)C(=O)N[C@@H](CCCNC(=N)N)C(=O)N[C@@H](CCCCN)C(=O)N[C@@H](CO)C(=O)N[C@@H](C)C(=O)N[C@H](C(=O)N[C@@H](CCCCN)C(N)=O)[C@@H](C)CC [P2pal-18S]	no antagonist activity	
								CCCCCCCCCCCCCCCC(=O)N[C@H](C(=O)N[C@@H](CC(C)C)C(=O)N[C@@H](CCCCN)C(=O)N[C@@H](CCSC)C(=O)N[C@@H](CCCCN)C(=O)N[C@H](C(=O)N[C@@H](CCCCN)C(=O)N[C@@H](CCCCN)C(=O)N1CCC[C@H]1C(=O)N[C@@H](C)C(=O)N[C@H](C(N)=O)C(C)C)C(C)C)[C@@H](C)CC [P1pal-i1-11] (Palmitoyl-ILKMKVKKPAV-NH2)		less effective in inhibiting the Gq mediated calcium signal
